Calls of active or inactive are those of the source. The rule behind the calls is not given here.
Legend:
B16-F10 [1] = experiment: Cytotoxicity against mouse B16F10 cells up to 200 ug/mL; type: cell-based
Tyrosinase = target: T1, Tyrosinase (Agaricus bisporus, UniProt O42713)
T1 sequence (O42713 whole entry): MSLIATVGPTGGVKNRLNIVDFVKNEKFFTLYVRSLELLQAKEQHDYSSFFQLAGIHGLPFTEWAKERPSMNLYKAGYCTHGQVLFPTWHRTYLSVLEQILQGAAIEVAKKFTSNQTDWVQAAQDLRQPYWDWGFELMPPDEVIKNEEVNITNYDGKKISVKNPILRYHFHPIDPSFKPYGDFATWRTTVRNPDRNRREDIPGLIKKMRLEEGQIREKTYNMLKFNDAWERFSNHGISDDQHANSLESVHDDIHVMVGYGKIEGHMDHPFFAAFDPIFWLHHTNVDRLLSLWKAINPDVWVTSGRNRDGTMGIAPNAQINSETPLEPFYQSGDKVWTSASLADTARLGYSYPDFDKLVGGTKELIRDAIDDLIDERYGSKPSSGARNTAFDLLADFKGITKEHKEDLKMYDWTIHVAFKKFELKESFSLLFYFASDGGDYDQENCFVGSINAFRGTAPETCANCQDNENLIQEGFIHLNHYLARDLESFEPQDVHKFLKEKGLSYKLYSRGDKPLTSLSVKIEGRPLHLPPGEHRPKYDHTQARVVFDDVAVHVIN
Description: Inhibition of mushroom tyrosinase using L-DOPA after 10 mins by ELISA reader

B16-F10 [2] = experiment: Antimelanogenic activity in alpha-MSH-stimulated mouse B16F10 cells pretreated for 30 mins before alpha-MSH challenge measured after 48 hrs by ELISA reader; type: functional, cell-based
B16-F10 [3] = experiment: Decrease in tyrosinase mRNA expression in alpha-MSH-stimulated mouse B16F10 cells after 48 hrs by RT-PCR analysis; type: functional, cell-based

SMILES: COc1cc([C@H]2c3c(cc(OC)c(O)c3OC)C[C@@H](CO)[C@H]2CO[C@@H]2O[C@H](CO)[C@@H](O)[C@H](O)[C@H]2O)cc(OC)c1O
- Activity (B16-F10 [1]): Non-toxic
- IC50 (Tyrosinase): > 1 mM
- Activity (B16-F10 [2]): Active

SMILES: COc1cc([C@@H]2c3c(cc(OC)c(O)c3OC)C[C@H](CO)[C@@H]2CO[C@@H]2O[C@H](CO)[C@@H](O)[C@H](O)[C@H]2O)cc(OC)c1O
- Activity (B16-F10 [1]): Non-toxic
- IC50 (Tyrosinase): > 1 mM
- Activity (B16-F10 [2]): Active

SMILES: COc1cc([C@@H]2c3c(cc(OC)c(O)c3OC)C[C@@H](CO)[C@H]2CO[C@@H]2O[C@H](CO)[C@@H](O)[C@H](O)[C@H]2O)cc(OC)c1O
- Activity (B16-F10 [1]): Non-toxic
- IC50 (Tyrosinase): > 1 mM
- Activity (B16-F10 [2]): Active

SMILES: COc1cc([C@H]2c3c(cc(OC)c(O)c3OC)C[C@H](CO)[C@@H]2CO[C@@H]2O[C@H](CO)[C@@H](O)[C@H](O)[C@H]2O)cc(OC)c1O
- Activity (B16-F10 [1]): Non-toxic
- IC50 (Tyrosinase): > 1 mM
- Activity (B16-F10 [2]): Active

SMILES: COc1cc(/C=C/C(=O)NCCc2ccc(O)c(OC)c2)ccc1O
- Activity (B16-F10 [1]): Non-toxic
- IC50 (Tyrosinase): > 1 mM
- Activity (B16-F10 [2]): Active

SMILES: COc1cc2c(cc1OC)C(=O)N(C)CC2
- Activity (B16-F10 [1]): Non-toxic
- IC50 (Tyrosinase): > 1 mM
- Activity (B16-F10 [2]): Active

SMILES: CC1=CC(=O)CC(C)(C)[C@@H]1/C=C/[C@@H](C)O[C@@H]1O[C@H](CO)[C@@H](O)[C@H](O)[C@H]1O[C@@H]1O[C@@H](C)[C@H](O)[C@@H](O)[C@H]1O [GUSANLUNGIONOSIDE A]
- Activity (B16-F10 [1]): Non-toxic
- Activity (B16-F10 [3]): Active
- IC50 (Tyrosinase): 0.15 mM
- Activity (B16-F10 [2]): Active

SMILES: CC1=CC(=O)CC(C)(C)[C@H]1/C=C/[C@@H](C)O[C@@H]1O[C@H](CO)[C@@H](O)[C@H](O)[C@H]1O[C@@H]1O[C@@H](C)[C@H](O)[C@@H](O)[C@H]1O [GUSANLUNGIONOSIDE B]
- Activity (B16-F10 [1]): Non-toxic
- Activity (B16-F10 [3]): Active
- IC50 (Tyrosinase): 0.16 mM
- Activity (B16-F10 [2]): Active

SMILES: CC1=CC(=O)CC(C)(C)[C@@H]1CC[C@@H](C)O[C@@H]1O[C@H](CO)[C@@H](O)[C@H](O)[C@H]1O[C@@H]1O[C@@H](C)[C@H](O)[C@@H](O)[C@H]1O [GUSANLUNGIONOSIDE C]
- Activity (B16-F10 [1]): Non-toxic
- Activity (B16-F10 [3]): Active
- IC50 (Tyrosinase): 0.2 mM
- Activity (B16-F10 [2]): Active

SMILES: CC1=CC(=O)CC(C)(C)[C@H]1CC[C@@H](C)O[C@@H]1O[C@H](CO)[C@@H](O)[C@H](O)[C@H]1O[C@@H]1O[C@@H](C)[C@H](O)[C@@H](O)[C@H]1O [GUSANLUNGIONOSIDE D]
- Activity (B16-F10 [1]): Non-toxic
- Activity (B16-F10 [3]): Active
- IC50 (Tyrosinase): 0.19 mM
- Activity (B16-F10 [2]): Active

SMILES: O=C(/C=C/c1ccc(O)cc1)NCCc1ccc(O)cc1 [N-P-COUMAROYL TYRAMINE]
- Activity (B16-F10 [1]): Non-toxic
- IC50 (Tyrosinase): > 1 mM
- Activity (B16-F10 [2]): Active

SMILES: OCc1ccc(O)cc1 [PARAHYDROXYBENZYL ALCOHOL]
- Activity (B16-F10 [1]): Non-toxic
- IC50 (Tyrosinase): > 1 mM
- Activity (B16-F10 [2]): Active

SMILES: COc1cc([C@H]2OC[C@H]3[C@@H]2CO[C@@H]3c2cc(OC)c(O)c(OC)c2)cc(OC)c1O [SYRINGARESINOL]
- Activity (B16-F10 [1]): Non-toxic
- IC50 (Tyrosinase): > 1 mM
- Activity (B16-F10 [2]): Active

SMILES: COc1cc2c(cc1O)C(=O)N(C)CC2 [THALIFOLINE]
- Activity (B16-F10 [1]): Non-toxic
- IC50 (Tyrosinase): > 1 mM
- Activity (B16-F10 [2]): Active

Reference: ChEMBL document CHEMBL1811762, “Gusanlungionosides A-D, potential tyrosinase inhibitors from Arcangelisia gusanlung” (J Nat Prod, 2011)
